Assay [1] deals with T1, TRPV4 (rat) (Rattus norvegicus, UniProt Q9ERZ8).
T1 construct: expressed in transfected cells; host or cells: N2a (mouse neuroblastoma) cells
In words: Ca++ imaging in N2a cells with directed expression of TRPV4, activation with GSK101. The format is cell-based. The source says:
FIGS. 26A-26B: Assessment of compounds in N2a cells with directed expression of TRPV4. […] The number on each bar corresponds to average peak ΔCa++ concentrations in ≈100 cells. […] Plot generated from averaged peak ΔCa++ concentration of 75 cells per data-point.

Assay [2] has as its target TRPV4 (Homo sapiens, UniProt Q9HBA0). The experiment in a line: TRPV4-mediated calcium influx in N2a cells with targeted expression of human TRPV4. The format is cell-based. Further details: expressed in transfected cells; host or cells: N2a cells. To be noted: 2.5 μM inhibitor, pre-incubation 10 min, 10 nM GSK101.
Assay [3] deals with primary mouse keratinocytes (1° MK). The experiment in a line: UVB-evoked Ca++ signaling in primary mouse keratinocytes (fluo-4). Type of assay: cell-based. To be noted: for ET1-augmented UVB-induced Ca++ transients: co-exposure to ET1; for UVB-evoked Ca++ signal: GSK205 20 μM. On the procedure: Ca++ imaging of 1° MK was conducted following routine procedures. For UVB stimulation, a customized device was built. The system comprised a printed circuit board for electrical interconnects and mechanical support and an ultraviolet light-emitting diode (UV LED).
The operating wavelength was 295 nm (FIG. 2A), with a full-width half-max of 12 nm. The optical power was 500 mW. The focal point was aimed at the plane of the upper surface of the quartz coverslip, which was used to minimize UV absorption along the optical path towards the cells (FIG. 2A-C). The optical intensity at the focal point was estimated to be 150 mW/mm^2.
(§1) Ca++ imaging of mouse 1° MK in response to chemical activation of TRPV4 was conducted after loading with 2 μM fura2-AM, following a ratiometric Ca2+ imaging protocol with 340/380 nm […] for dual excitation. Ratios of emissions were acquired at 0.5 Hz. ΔR/R0 was determined as the fraction of the increase of a given ratio over baseline ratio, divided by baseline ratio. For stimulation of cells with UVB, where fura-2 was not suitable because of the proximity of stimulation with 340/380 nm and 295 nm, 2 μM fluo4-AM was used instead. Ca++ imaging was carried out at 488 nm excitation, acquisition of emissions at 0.5 Hz, expressed as ΔF/F0. In the custom-built UV optical system, UV LEDs were capped with a ball lens, a transparent optical window in the shape of a hemispherical lens (FIG. 2B). The LED output optical beam focused at 15-20 mm from the lens, with a spot diameter of approximately 1.5-2.0 mm (FIG. 2C). […] The thermal equilibration stage was set for physiological temperature.

Assay [4] has the same test system. The experiment in a line: ET1 secretion by non-stimulated primary mouse keratinocytes (ELISA). Type of assay: cell-based. On the procedure: FIGS. 8A-8D: Central role for KC TRPV4 in UVB-evoked Ca^++ signaling and nocifensive behavior—ET1-related supplementary findings. (FIG. 8A) Augmentation of GSK101-evoked Ca^++ signaling by ET1. Shown are averaged Ca^++ measurements (fura-2) in response to 5 nM GSK101. Note the increase in signal in response to co-exposure to ET1. (FIG. 8B) ET1 secretion by non-stimulated 1° MK depends on TRPV4 and PLC. Shown are relative ET1 concentrations (determined by ELISA, pg/mL; vehicle-treated and WT control normalized to 100) in supernatant of non-stimulated 1° MK. Note the clear dependence on TRPV4, as indicated by a 50% reduction in Trpv4^−/− 1° MK. […] There is also down-regulation of ET1 secretion by a specific inhibitor of PLC (U73122), and by an ET-convertase inhibitor, CGS35066, which served as a control compound. In addition, PLC-inhibitor robustly affects ET1 secretion in WT and Trpv4^−/− 1° MK. (FIG. 8C) ET1 expression by UVB-exposed 1° MK depends on TRPV4 and PLC—immunocytochemistry. Shown is specific ET1 immunolabeling in 1° MK, exposed to UVB using the UVB-LEDs, as for Ca^++ imaging. Use of the UVB-LED device precluded application of a ET1 ELISA, only irradiated cells could be examined. […] (FIG. 8D) ET1 expression by UVB-exposed 1° MK depends on TRPV4 and PLC—quantification of immunocytochemistry.
A general note: An ELISA detects its analyte on a solid surface through an enzyme-linked reagent.

For assay [5] the test system is unchanged. In words: ET1 immunocytochemistry in UVB-exposed primary mouse keratinocytes. Type of assay: cell-based. The settings on record: 295 nm UVB-LED. On the procedure: 1° MK were exposed to UVB using the UV optical system (295 nm LED). 24 hours later the cells were fixed and fluorescently immunolabeled for ET1. Digital images were captured and subjected to morphometry.
Mouse keratinocytes were cultured on collagen coated quartz coverslips and then stimulated from the bottom using the previously mentioned UV optical system using the 295 nm LED. 24 hours later the cells were fixed in 4% formaldehyde in PBS for 20 minutes, permeabilized with 0.1% Triton X-100 in PBS for 10 minutes, washed, then blocked in 10% normal goat serum in PBS for 45 minutes. Coverslips were incubated overnight with primary antibody mouse anti-ET1 (1:200; Abcam), washed three times in PBS and incubated with secondary antibody for 2 hours at 25° C. Coverslips were washed three times in PBS, once with double-distilled H2O. Digital images were captured using a 40× immersion lens on the BX61 Olympus upright microscope. Morphometric analysis was conducted using ImageJ freeware with tailored regions-of-interest.

In assay [6] the test system is Trpv4−/− mice, whisker-pad injection of formalin. The experiment in a line: Formalin-evoked trigeminal irritant pain, systemic (i.p.) compound, Trpv4−/− mice. The settings on record: 25 mg/kg i.p. Type of assay: in vivo, mouse. On the procedure: FIGS. 31A-31D: 16-8 and 16-19 effectively attenuate formalin-evoked trigeminal irritant pain. (FIG. 31A) Time-course of nocifensive behavior in WT mice following whisker-pad injection of 4% formalin. The mice were pre-injected (i.p., 10 mg/kg; 15 min before formalin) with GSK205, 16-8 or 16-19. Note effective reduction of nocifensive behavior in the late “neural” phase by compounds 16-8, 16-19, not by GSK205. (FIG. 31B) Cumulative response binned into 3 phases: acute phase (0-5 min), interphase (5-15 min), and late “neural” phase (15-45 min). […] (FIG. 31C) As in (FIG. 31A), but also including Trpv4^−/− mice. Compounds were applied i.p. 15 min before formalin challenge, at 10 mg/kg except established TRPA1 blocker, A967079 (25 mg/kg). Previously-established attenuated nocifensive behavior in early and late phase in Trpv4^−/− mice was recapped, which was reduced further by TRPA1 blocker, A967079. (FIG. 31D) As in (FIG. 31B), plus inclusion of Trpv4^−/− mice. Robust effects of TRPA1-blocker, A967079, were mimicked equi-potently by 16-8 and 16-19 for early phase, and by 16-8 for late phase, partially by 16-19 for late phase. (FIG. 31A, FIG. 31C) show averaged behavioral metrics per time-point, bars in (FIG. 31B, FIG. 31D) represent mean±SEM; for (D) *p<0.05; #P<0.005, one-way ANOVA; for all panels n=5-8 mice/group.
Compounds were tested for their effect in reducing pain using an in vivo pain model in mice. For mouse formalin-evoked irritant behavior measurements, mice were well-fed, well-rested, and tested at the same time of day, at the same time-point of their circadian rhythm. They were allowed to acclimate to a plexiglas chamber for at least 30 min before testing, and received 10 μL subcutaneous injection of 4% of formalin (diluted from an aqueous solution of commercial 37% formaldehyde with normal saline (NS)) through a 30-gauge needle into the right whiskerpad, as further detailed in Luccarini et al. (J. Pain, 2006, 7, 908-914). Normal saline was used as control injection. After injection, mice were immediately placed back into the chamber and the rubbing behavior was recorded by a private consumer-type video-camera for a 45 min observation period. The recording time was divided into 9 blocks of 5 min, and a nociceptive score was determined per block by measuring the time that the animals spent rubbing the injected area predominantly with the ipsilateral fore-paw and rarely with hind-paw. This rubbing behavior with fore-paw is evoked by pain, which is distinct from itch behavior. Behavioral analysis was conducted by observers blinded to treatment.
We observed significant residual irritant-pain behavior in all phases of the formalin model in Trpv4^−/− mice, consistent with our previous report^13 (FIG. 31C,D). […] A reference TRPA1-inhibitory compound, A967079, was used at 25 mg/kg body weight as a positive control to inhibit TRPA1, based on a previous report^38. Reduction of pain behavior in Trpv4^−/− mice was striking, more than 50% in the late neural phase. […] We conclude that compound 16-8 also functions as a potent TRPA1-inhibitor in an in-vivo irritant pain model specifically designed to assess the contribution of TRPA1 to trigeminal irritant pain, and at least as potent as an established reference TRPA1-antagonistic compound.

Assay [7] deals with T2, TRPV4 (Mus musculus, UniProt Q9EPK8).
T2 construct: endogenous in cells; host or cells: primary mouse epidermal keratinocytes (1° MK)
T2 sequence (Q9EPK8 whole entry): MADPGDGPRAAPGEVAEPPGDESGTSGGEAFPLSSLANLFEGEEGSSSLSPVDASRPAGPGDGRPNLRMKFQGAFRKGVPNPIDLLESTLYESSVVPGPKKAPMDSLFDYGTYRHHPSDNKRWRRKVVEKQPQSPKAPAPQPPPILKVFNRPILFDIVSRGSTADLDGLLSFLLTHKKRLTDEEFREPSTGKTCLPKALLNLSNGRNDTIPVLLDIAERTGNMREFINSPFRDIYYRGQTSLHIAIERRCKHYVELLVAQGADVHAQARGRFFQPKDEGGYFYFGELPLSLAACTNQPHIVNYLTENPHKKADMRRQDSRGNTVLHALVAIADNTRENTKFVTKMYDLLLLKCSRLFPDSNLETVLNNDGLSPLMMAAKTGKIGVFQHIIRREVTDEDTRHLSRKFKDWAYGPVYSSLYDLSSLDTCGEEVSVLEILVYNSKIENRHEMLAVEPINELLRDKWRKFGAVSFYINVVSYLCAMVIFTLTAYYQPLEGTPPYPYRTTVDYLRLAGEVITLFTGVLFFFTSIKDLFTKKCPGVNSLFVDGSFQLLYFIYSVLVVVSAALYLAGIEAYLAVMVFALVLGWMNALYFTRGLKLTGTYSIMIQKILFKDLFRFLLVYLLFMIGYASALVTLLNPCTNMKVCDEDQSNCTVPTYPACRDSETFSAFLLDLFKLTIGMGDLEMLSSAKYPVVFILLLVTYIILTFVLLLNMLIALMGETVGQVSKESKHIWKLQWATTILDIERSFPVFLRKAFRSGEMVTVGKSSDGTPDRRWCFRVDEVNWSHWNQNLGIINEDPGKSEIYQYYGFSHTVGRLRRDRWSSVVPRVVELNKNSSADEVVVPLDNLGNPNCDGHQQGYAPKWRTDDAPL
In words: Ca++ transients in primary mouse keratinocytes on chemical activation of TRPV4 (GSK101, 4α-PDD). The format is cell-based. The settings on record: 1° MK. On the procedure: as §1, with “temperature. We confirmed the non-thermal nature of UVB stimulation using the customized 295 nm LED device in a dedicated experiment (FIG. 2D), thus confirming the specific modality of stimulation as UVB.” for “temperature.”

Assay [8] deals with WT and oil-treated iKO mice. In words: Nocifensive behavior after ET1 footpad injection (von Frey). Type of assay: in vivo, mouse. The settings on record: 10 μL 100 nM ET-1 intraplantar. How it is done: ET1 injections: After determining base-line withdrawal thresholds, each animal received an intraplantar injection of 10 μL 100 nM ET-1 plus contralateral vehicle. Thresholds were again evaluated 1 hour after injection.
Hindpaw mechanical withdrawal thresholds were determined by the automated von Frey hair method, using a 0.5 mm diameter stainless steel filament, part of an automated plantar touch stimulator (Ugo Basile, Modena, Italy). Relevant detail included pre-test acclimatization in a quiet room for 30 min, conducting the test at the same time of day and blinded observers. The stimulus was delivered to the hindpaw, automatically discontinued upon withdrawal, and its intensity recorded automatically. 6-8 trials per animal were conducted, with equal exposure of both hindpaws, leading to an average withdrawal threshold. Results are reported as […], which was calculated by subtracting post-treatment from pre-treatment measurements, expressed as % or relative to 1.0.

The values that follow come from patent publication US11564911B2, “Small molecule dual-inhibitors of TRPV4 and TRPA1 for sanitizing and anesthetizing” (Duke University, priority 2016, dated 2023).

Several values for one entry are separate records, joined by “and”; a condition that tells them apart may be missing. Identical values can stand only once. Entries after “also recorded” stand apart in the source; their conditions may differ. Square brackets hold non-standard residues; d marks the D form. Peptide text beside a SMILES is read from it.

T1 sequence (Q9ERZ8 whole entry): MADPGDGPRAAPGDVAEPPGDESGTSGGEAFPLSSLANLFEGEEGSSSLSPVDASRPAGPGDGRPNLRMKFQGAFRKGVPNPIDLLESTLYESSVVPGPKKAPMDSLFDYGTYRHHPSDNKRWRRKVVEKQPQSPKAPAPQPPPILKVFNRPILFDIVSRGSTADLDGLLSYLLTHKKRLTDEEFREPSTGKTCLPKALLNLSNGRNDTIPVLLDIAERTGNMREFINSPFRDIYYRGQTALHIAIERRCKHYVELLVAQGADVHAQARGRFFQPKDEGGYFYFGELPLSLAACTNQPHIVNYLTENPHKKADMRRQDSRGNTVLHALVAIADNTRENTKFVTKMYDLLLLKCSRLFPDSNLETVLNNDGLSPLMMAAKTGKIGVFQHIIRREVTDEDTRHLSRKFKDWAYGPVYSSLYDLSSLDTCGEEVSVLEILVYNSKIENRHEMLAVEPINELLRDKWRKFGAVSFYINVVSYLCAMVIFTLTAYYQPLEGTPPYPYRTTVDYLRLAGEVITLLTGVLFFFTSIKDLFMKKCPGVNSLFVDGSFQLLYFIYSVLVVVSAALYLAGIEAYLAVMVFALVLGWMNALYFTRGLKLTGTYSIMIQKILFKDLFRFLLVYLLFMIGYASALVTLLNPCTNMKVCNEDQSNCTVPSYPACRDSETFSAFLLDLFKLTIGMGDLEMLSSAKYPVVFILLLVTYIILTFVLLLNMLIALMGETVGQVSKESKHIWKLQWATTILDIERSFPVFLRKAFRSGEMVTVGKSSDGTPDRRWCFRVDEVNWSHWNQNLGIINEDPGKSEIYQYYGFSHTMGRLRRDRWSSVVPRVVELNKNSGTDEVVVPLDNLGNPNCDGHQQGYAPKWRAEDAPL
Sequence of TRPV4 (Homo sapiens, UniProt Q9HBA0) (Q9HBA0 whole entry): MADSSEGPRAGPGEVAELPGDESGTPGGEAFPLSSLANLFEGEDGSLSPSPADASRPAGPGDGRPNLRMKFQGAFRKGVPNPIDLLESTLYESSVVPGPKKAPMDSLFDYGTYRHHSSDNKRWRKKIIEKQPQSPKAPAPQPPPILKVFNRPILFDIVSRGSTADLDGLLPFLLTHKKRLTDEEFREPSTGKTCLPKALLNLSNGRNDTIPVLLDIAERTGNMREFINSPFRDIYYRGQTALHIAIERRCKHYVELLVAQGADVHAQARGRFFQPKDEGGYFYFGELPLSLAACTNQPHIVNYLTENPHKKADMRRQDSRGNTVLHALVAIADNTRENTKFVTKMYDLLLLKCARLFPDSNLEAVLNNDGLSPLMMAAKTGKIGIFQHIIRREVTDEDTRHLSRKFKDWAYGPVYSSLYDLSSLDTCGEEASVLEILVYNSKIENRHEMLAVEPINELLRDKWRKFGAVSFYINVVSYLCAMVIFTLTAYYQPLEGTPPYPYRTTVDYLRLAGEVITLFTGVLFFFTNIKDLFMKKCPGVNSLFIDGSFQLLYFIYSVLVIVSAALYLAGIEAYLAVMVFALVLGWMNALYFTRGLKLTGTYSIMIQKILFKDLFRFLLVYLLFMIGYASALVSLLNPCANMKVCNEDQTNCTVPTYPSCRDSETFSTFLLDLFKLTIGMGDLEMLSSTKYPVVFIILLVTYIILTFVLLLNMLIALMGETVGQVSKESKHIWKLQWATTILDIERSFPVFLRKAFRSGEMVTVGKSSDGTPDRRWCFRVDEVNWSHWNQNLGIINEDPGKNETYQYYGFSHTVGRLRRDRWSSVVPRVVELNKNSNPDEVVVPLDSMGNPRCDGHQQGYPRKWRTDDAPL

By IC50 is commonly meant the concentration that gives 50% inhibition. On to `CCN(CCc1ccc(Nc2nc(-c3cccnc3)cs2)cc1)Cc1ccccc1` [Compound 16-18], for which the concentration for half-maximal inhibition (IC50) in assay [1] (N2a cells, rat TRPV4, 5 nM GSK101, averaged peak ΔCa++, read-out: IC50, inhibition of TRPV4-mediated Ca++ influx) was 0.81 µM and 0.59 µM. The “increased potency versus parental compound GSK205” value in assay [1] (from IC50 values, rat TRPV4 in N2a cells) is given as approximately 5 fold. Further, the “inhibition of TRPV4-mediated Ca++ influx, first round screening” value in assay [1] (inhibitor 5 μM, 5 nM GSK101) is given as “two most potent”. The “inhibition of TRPV4-mediated calcium influx (peak calcium concentration)” value in assay [2] was “most potent”.

On to `CCCC[C@@H](NC(=O)[C@@H](Cc1cn(C(=O)OC)c2ccccc12)NC(=O)[C@H](CC(C)(C)C)NC(=O)N1[C@H](C)CCC[C@@H]1C)C(=O)O` [BQ788], for which the “ET1-augmented UVB-induced Ca++ transients” value in assay [3] is recorded as “attenuated”.

Regarding `COc1ccc2c(c1)CC[C@@H]1[C@@H]2CC[C@]2(C)[C@@H](NCCCCCCN3C(=O)C=CC3=O)CC[C@@H]12` [Compound U73122], the “UVB-evoked Ca++ signal” value in assay [3] is reported as “virtually eliminated; also recorded: strongly reduced”. The “ET1 secretion, supernatant of non-stimulated 1° MK” value in assay [4] is listed as “down-regulation”. Besides, in assay [5], the “ET1 immunoreactivity in UVB-exposed 1° MK” value (“ET1 immunoreactivity” below) is reported as “significant down-regulation”.

For the compound `C=C(C)CCO[P@@](=O)(O)OP(=O)(O)O` [IPP, isopentenyl pyrophosphate], the “UVB-evoked Ca++ signal” value in assay [3] is “not inhibited”.

Regarding `CC(C)C[C@@H]1NC(=O)[C@@H](C(C)C)NC(=O)[C@@H]2CCCN2C(=O)[C@@H](CC(=O)O)NC(=O)[C@@H](Cc2c[nH]c3ccccc23)NC1=O` [BQ123] (cyclo(L[dW][dD]P[dV])), the “ET1-augmented UVB-induced Ca++ transients” value in assay [3] is “attenuated”.

On to `CCC(=N\O)/C(C)=C/c1ccc(F)cc1` [Compound A967079, reference compound], for which, in assay [6], the “reduction of pain behavior in the late neural phase” value is listed as “more than 50%”.

Turning to `O=C(O)C(Cc1ccc2c(c1)oc1ccccc12)NCP(=O)(O)O` (centres unmarked) [CGS35066], the “UVB-evoked Ca++ signal” value in assay [3] is “significantly diminished”. The “ET1 secretion, supernatant of non-stimulated 1° MK” value in assay [4] was “down-regulation”. The “ET1 immunoreactivity” value in assay [5] is recorded as “significant down-regulation”.

As to `CC(C)NCCN(C(C)C)S(=O)(=O)c1ccc(Cl)cc1Cl` [RN1734], the “ET1 secretion, supernatant of non-stimulated 1° MK” value in assay [4] is given as “significant down-regulation”. For the same compound, in assay [5], the “ET1 immunoreactivity” value was “significant down-regulation”.

In the case of “ET1: endothelin-1 peptide, cognate ligand of endothelin receptors”, in assay [3], the “UVB-evoked Ca++ signal” value is on record as “significant increase”. Besides, in assay [7] (5 nM GSK101, GSK205 20 μM), the “GSK101-evoked Ca++ transient” value was “augmented”. In addition, the “4α-PDD-evoked Ca++ transient” value in assay [7] (fura-2) is reported as “significant increase”. Besides, the “mechanical withdrawal after footpad injection” value in assay [8] is given as “significant levels of mechanical allodynia”.
